One experiment relates to L1210. As to the kind of experiment: Cytotoxicity against mouse L1210 cells. The class given is functional, cell-based.
Another experiment concerns KB. As to the kind of experiment: Cytotoxicity against human KB cells. The class given is functional, cell-based.

SMILES strings stand for the structures. In brackets after ≈: the same amount, converted by molar mass.

Take `C=C(C)CCC[C@](C)(O)[C@H]1CC[C@@]2(C)[C@@H]3CC[C@H]4C(C)(C)[C@@H](O[C@@H]5OC[C@@H](O)[C@H](O)[C@H]5O[C@@H]5O[C@H](C)[C@@H](O[C@@H]6O[C@H](CO)[C@@H](O)[C@H](O[C@@H]7O[C@H](CO)[C@@H](O)[C@H](OC)[C@H]7O)[C@H]6O)[C@H](O)[C@H]5O[C@@H]5OC[C@@H](O)[C@H](O)[C@H]5O)CC[C@]4(C)C3=CC[C@]12C` [DS-PENAUSTROSIDE B]: the values for the IC50 with L1210 and in the experiment on KB were 2.1 µg/mL (≈ 1.76 µM) and 4.6 µg/mL (≈ 3.86 µM), respectively.
For `CO[C@@H]1[C@@H](O)[C@H](O[C@@H]2[C@@H](O)[C@H](O[C@H]3[C@H](O)[C@@H](O[C@@H]4OC[C@@H](O)[C@H](O)[C@H]4O)[C@H](O[C@H]4[C@H](O[C@H]5CC[C@]6(C)C7=CC[C@]8(C)[C@@H]([C@@](C)(O)CCCC(C)C)CC[C@@]8(C)[C@@H]7CC[C@H]6C5(C)C)OC[C@@H](O)[C@@H]4O)O[C@@H]3C)O[C@H](CO)[C@H]2O)O[C@H](CO)[C@H]1O` [DS-PENAUSTROSIDE A], the results for the 50% inhibitory concentration (IC50) in the experiment with L1210 and in the experiment on KB were 0.12 µg/mL (≈ 0.101 µM) and 0.62 µg/mL (≈ 0.52 µM), respectively.
